{
  "source": "patent US20050287163A1",
  "about": "“Mycoplasma polypeptides” (priority 2002, published 2005)",
  "key": {"[1]": {"system": "M. hyopneumoniae-induced [Ca2+]i increase in porcine ciliated tracheal cells", "assay": "Effect of pretreatment of tracheal cells on M. hyopneumoniae-induced [Ca2+]i increase", "type": "cell-based", "method": "(§1) The following techniques were used to obtain [Ca^2+]i measurements in single cells. The tracheal cells were loaded with 4 μM fura-2 acetoxymethyl ester (fura-2AM) in Krebs-Ringer bicarbonate (KRB) buffer solution containing: 136 mM NaCl, 4.8 mM KCl, 1.5 mM CaCl2, 1.2 mM KH2PO4, 1.2 mM MgSO4, 10 mM HEPES, 5.5 mM glucose, and 0.1% BSA, pH 7.4 and incubated for 30 minutes at 37° C. The loaded cells were centrifuged (700× g, 2 minutes), then resuspended with KRB at a concentration of 500-1000 cells/mL. The tracheal cells loaded with fura-2AM were plated onto poly-lysine-coated coverslips in a custom-made Petri dish. The dish containing fura-2 loaded cells was mounted on the stage of an inverted fluorescence microscope (Carl Zeiss, NY). Only viable ciliated tracheal cells were focused on for the determination of [Ca^2+]i at 24° C. The fura-2 loaded porcine ciliated tracheal cells deteriorated quickly at 37° C. Fluorescence images were obtained (excitation wavelengths of 334 and 380 nm; emission wavelength of 510±20 nm) and used to generate spatially resolved maps of [Ca^2+]i by subtracting the background dividing the images on a pixel-by-pixel basis. The emitted signals were digitalized, recorded, and processed using the Attofluor digital fluorescence imaging system (Atto Instruments, Rockville, Md.). After reading fluorescence for 150 seconds, mycoplasmas were mixed with the cell system. [Ca^2+]i was calculated as previously described (Grynkiewicz et al., J. Biol. Chem., 260:3440-3450 (1985)). Calibration was performed in situ according to the procedure provided by Atto Instruments, using Fura-2 penta K^+ as a standard.\nTo investigate the pathway of Ca^2+ signaling, pertussis toxin (PTX, 100 ng/mL) was preincubated with tracheal cells for 3 hours. Cells were pretreated with thapsigargin (TG, 1 μM) for 30 minutes at 37° C. prior to the addition of the mycoplasmas to deplete the ER Ca^2+ store (Thastrup et al., Proc. Natl. Acad. Sci. USA, 87:2466-2470 (1990)). […] To confirm that mycoplasmas increased [Ca^2+]i by activating a Gi/o protein, Mas 7 (10 μM), an activator of this protein (Higashijima et al., J. Biol. Chem., 265:14176-14186 (1990)), was used to determine if it can increase [Ca^2+]i in tracheal cells. In addition, it was determined whether PTX can block the increase in [Ca^2+]i due to Mas 7."}, "[2]": {"system": "porcine ciliated tracheal epithelial cells", "assay": "[Ca2+]i measurement in single fura-2 loaded ciliated tracheal cells", "type": "cell-based", "method": "Tracheal cells were isolated as previously described (Young et al., Vet. Microbiol., 71:269-279 (1999)). Briefly, the tracheas were removed from 3-6 month old specific-pathogen-free pigs anesthetized with sodium pentobarbital using aseptic techniques. The ciliated cells were dissociated using 0.15% pronase and 0.01% DNase in Ca^2+- and Mg^2+-free MEM medium, which was incubated at 4° C. for 24 hours. The epithelial cells were collected by centrifugation at 125× g for 5 minutes. The cell pellets were resuspended in a mixture of DMEM (high glucose) and Ham's F-12 (1:1) media containing 5% FBS, 0.12 U/mL of insulin, and 100 U/mL of penicillin-streptomycin. Cell suspensions were transferred to 90-mm tissue culture dishes and incubated in 5% CO2 for 60-90 minutes to remove fibroblasts. The tracheal epithelial cells were stored in liquid nitrogen until use.\nas §1\nTo compare the [Ca^2+]i of tracheal cells response to pathogenic M. hyopneumoniae strain 91-3, avirulent M. hyopneumoniae, and M. flocculare, the cells were treated with the same concentration of 300 μg/mL. One to five ciliated single tracheal cells in each experiment were selected to investigate the [Ca^2+]i changes. The mycoplasmas were maintained on ice before being applied to tracheal cells.\nData on [Ca^2+]i were analyzed by ANOVA or by Student's t-test. The significance level was set at P<0.05."}, "[3]": {"system": "Mas 7-induced [Ca2+]i increase in ciliated tracheal cells", "assay": "Effect of PTX pretreatment on Mas 7-induced [Ca2+]i increase", "type": "cell-based, porcine", "conditions": "PTX pretreatment (100 ng/mL, 3 hours); Mas 7 10 μM", "method": "as §1, with “Only viable ciliated tracheal cells were focused on for the determination of [Ca^2+]i at 24° C. The fura-2 loaded porcine ciliated tracheal cells deteriorated quickly at 37° C.” left out, “Calibration was performed in situ according to the procedure provided by Atto Instruments, using Fura-2 penta K^+ as a standard.” left out"}, "[4]": {"system": "Mhyo membrane-induced [Ca2+]i increase in ciliated tracheal cells", "assay": "Protease pretreatment of Mhyo membrane, effect on membrane-induced [Ca2+]i increase", "type": "cell-based, porcine", "method": "FIG. 6 contains four graphs plotting [Ca^2+]i response in ciliated porcine tracheal cells inoculated with Mhyo membranes. Each trace indicates the [Ca^2+]i changes in each tracheal cell. The arrows indicate when administration occurred. (A) The membrane preparation (100 μg/mL) increased [Ca^2+]i. (B) Digestion with proteinase K blocked the membrane-induced increase in [Ca^2+]i. The membrane (100 μg/0.1 mL PBS) was incubated with proteinase K (2 μg) at 37° C. for 8 hours before it was applied to tracheal cells in 0.9 mL Krebs-Ringer bicarbonate (KRB) buffer. (C) Digestion with trypsin potentiated the membrane-induced increase in [Ca^2+]i. The membrane (100 μg/0.1 mL PBS) was incubated with trypsin (6 μg) at 37° C. for 30 minutes before it was applied to tracheal cells in 0.9 mL KRB. […] The soluble protein was prepared by subjecting the trypsinized membrane to ultracentrifigation (100,000× g, 60 minutes) to obtain the supernatant.\nMycoplasmas lack cell walls and have only one type of membrane, the plasma membrane (Razin S. (1993) Mycoplasma membranes as models in membrane research (Chapter 2), In: Subcellular Biochemistry. Vol 20: Mycoplasma Cell Membranes, edited by Rottem S, Kahane I. Plenum Press, New York. pp. 1-28). The Mhyo membrane was prepared by osmotic lysis of the organisms and tested to determine if it increased [Ca^2+]i in ciliated tracheal cells. […]"}, "[5]": {"system": "guinea pig tracheal epithelia", "conditions": "trypsin 0.1 U/mL; cited from earlier work"}},
  "note": "Entries after “also recorded” stand apart in the source; their conditions may differ.",
  "data": [
    {"compound": "COc1ccc2c(c1)CC[C@@H]1[C@@H]2CC[C@]2(C)[C@@H](NCCCCCCN3C(=O)C=CC3=O)CC[C@@H]12", "note": "[U-73122]", "values": [
      {"measurement": "effect on M. hyopneumoniae-induced [Ca2+]i increase", "setting": "[1]; pretreatment 2 μM, 100 seconds, U-73122", "value": "abolished; also recorded: prevented"}
    ]},
    {"compound": "COc1ccc2c(c1)CC[C@@H]1[C@@H]2CC[C@]2(C)[C@@H](NCCCCCCN3C(=O)CCC3=O)CC[C@@H]12", "note": "[U-73343]", "values": [
      {"measurement": "cells that responded to mycoplasma with pretreatment", "setting": "[1]; U-73343 2 μM", "value": 82, "unit": "%"},
      {"measurement": "peak [Ca2+]i after mycoplasma with pretreatment", "setting": "[1]; U-73343 2 μM, basal: 90±12 nM, 10 cells", "value": "330 ± 25", "unit": "nM"},
      {"measurement": "effect on M. hyopneumoniae-induced [Ca2+]i response", "setting": "[1]; pretreatment 2 μM, inactive analogue U-73343", "value": "did not prevent"}
    ]},
    {"compound": "C/C=C(/C)C(=O)O[C@H]1C(C)=C2[C@H]([C@@H]1OC(=O)CCCCCCC)[C@@](C)(OC(C)=O)C[C@H](OC(=O)CCC)[C@@]1(O)[C@H]2OC(=O)[C@@]1(C)O", "note": "[thapsigargin]", "values": [
      {"measurement": "effect on M. hyopneumoniae-induced [Ca2+]i increase", "setting": "[1]; pretreatment 1 μM, 30 minutes, mycoplasma 300 μg/mL", "value": "abolished"}
    ]},
    {"compound": "Mastoparan 7", "values": [
      {"measurement": "[Ca2+]i after administration", "setting": "[2]; 10 μM, from basal level of 103±4 nM, n=9 cells", "value": "351 ± 24", "unit": "nM"},
      {"measurement": "cells that responded", "setting": "[2]; Mas 7 10 μM", "value": 82, "unit": "%"},
      {"measurement": "time to [Ca2+]i increase", "setting": "[2]; Mas 7 10 μM", "value": "≤ 100", "unit": "s"},
      {"measurement": "effect on [Ca2+]i", "setting": "[2]; Mas 7 administration", "value": "increased"}
    ]},
    {"compound": "pertussis toxin", "values": [
      {"measurement": "effect on Mas 7-induced [Ca2+]i increase", "setting": "[3]", "value": "abolished"},
      {"measurement": "effect on M. hyopneumoniae-induced [Ca2+]i increase", "setting": "[1]; pretreatment 100 ng/mL, 3 hours", "value": "abolished"}
    ]},
    {"compound": "trypsin", "values": [
      {"measurement": "effect of trypsin pretreatment on membrane-induced [Ca2+]i increase", "setting": "[4]; pretreatment of the membrane for 30 minutes", "value": "potentiated"},
      {"measurement": "effect of trypsin pretreatment on membrane-induced [Ca2+]i increase", "setting": "[4]; pretreatment of the membrane for 16 hours", "value": "failed to reduce"},
      {"measurement": "effect of trypsin alone on [Ca2+]i", "setting": "[2]; trypsin alone at ≧1 U/mL", "value": "increase"},
      {"measurement": "effect on [Ca2+]i", "setting": "[5]", "value": "can increase"}
    ]}
  ]
}
